Experimental data from publication PMC5682201 (European journal of medicinal chemistry, 2017).

How the values were obtained:
Format in all cases: cell-based
HepG2 = HepG2 toxicity; settings: Table 4
L. major Amastigotes = assay: Leishmania major amastigote assay; settings: read-out: L. major Amastigotes EC50; Table 4; r^2 values >0.75
NIH 3T3 = NIH 3T3 toxicity; settings: Table 4

For “6-(3-morpholinophenyl)-N-(1,2,4-triazin-3-yl)quinazolin-4-amine [9d]”, the “HepG2 TC50” value (HepG2) was over 20 µM, the EC50 (L. major Amastigotes) was over 15 µM and the “NIH 3T3 TC50” value (NIH 3T3) was over 50 µM.
